Where two headings read alike, the source gives them in different places.
Experiments:
Male Wistar rats = assay: Oral sucrose tolerance test; type: in vivo, rat; details: in combination with voglibose, sucrose 2.5 g/kg, compared to nateglinide or repaglinide, FIG. 11
Method: Male Wistar rats purchased from Japan SLC, Inc. were used in this test.
An oral sucrose tolerance test was performed using 7-week-old rats.
The rats were fasted for at least 16 hours and received oral administration of 2.5 mL/kg of a prepared tested substance or a vehicle (0.5% CMC solution), followed by oral administration of 5 mL/kg of 0.5 g/mL sucrose solution (2.5 g/kg). Blood was drawn from a rat tail vein immediately before administration and 0.25 and 0.5 hours after loading. A plasma glucose concentration was measured using a Glucose CII-test Wako (Wako Pure Chemical Industries, Ltd.).
A dose of the tested substance was converted from a usual dose of each drug for a type 2 diabetic patient (mitiglinide: 10 mg, nateglinide: 120 mg, repaglinide: 1 mg). As for nateglinide, a converted value of 12 mg was changed to 20 mg to be set as a dose, considering an effect thereof.
An area under the plasma glucose concentration-time curve from a time before sucrose loading to 0.5 hours after sucrose loading (AUC0-0.5 hr) was set as an assessment item. Blood glucose AUC0-0.5 hr was calculated from plasma glucose concentrations with a trapezoidal rule using the area under the plasma glucose concentration-time curve.
Excel (Microsoft Corp.) and GraphPad Prism 3.0 (GraphPad Software Inc.) were used to aggregate and calculate data, to make diagrams and the like. […]

[1] = system: patients with type 2 diabetes; details: human, in vivo
Method: Clinical trials as follows were performed with double-blind, parallel group trial on patients with type 2 diabetes.
Type 2 diabetic patients of at least 20 years old whose blood glucose could not be sufficiently controlled by a dietary therapy and who requires introduction of medication and has HbA1C of at least 6.5% and less than 8.5%.
(1) 5 mg tablet of mitiglinide calcium hydrate (hereafter also referred to as “KAD-1229”)
(2) placebo tablet of KAD-1229 5 mg tablet
(4) placebo tablet of KAD-1229 10 mg tablet
(5) 0.2 mg tablet of voglibose
(6) placebo tablet of voglibose 0.2 mg tablet
(Method of Administration)
A 0.2 mg tablet of voglibose was orally administered 3 times a day immediately before every meal (within 5 minutes before eating) for 16 weeks (an observation period: a non-blind trial period). Thereafter, investigational drugs distributed as Table 1 were orally administered 3 times a day immediately before every meal (within 5 minutes before eating) for 12 weeks (a treatment period: a double-blind trial period). Administration of the investigational drugs after meal was not allowed, and administration was not performed when the meal was not taken.
The following items were assessed during and after the period of administration.

Row | SMILES | blood glucose decreasing effect (blood glucose AUC0-0.5 hr) (Male Wistar rats) | Incidence rate of gastrointestinal disorders [1] | Incidence rate of hypoglycemic symptoms [1] | Incidence rate of gastrointestinal disorders ([1]; 12 weeks) | Incidence rate of hypoglycemic symptoms ([1]; 12 weeks)
1 | O.O.O=C([O-])[C@H](CC(=O)N1C[C@H]2CCCC[C@H]2C1)Cc1ccccc1.O=C([O-])[C@H](CC(=O)N1C[C@H]2CCCC[C@H]2C1)Cc1ccccc1.[Ca+2] [Comparative Example 2, mitiglinide calcium hydrate] | strong blood glucose decreasing effect within a very short time | 6.8% | 3.9% |  | 
2 | OCC(CO)N[C@H]1C[C@](O)(CO)[C@@H](O)[C@H](O)[C@H]1O [Comparative Example 1, voglibose] |  |  |  | 10.1% | 1.1%
